# In patent US9994528B2, “Certain amino-pyridines and amino-triazines, compositions thereof, and methods for their use” (Cytokinetics, Inc., priority 2010, dated 2018):
# Test system: rabbit skeletal myofibrils (approximately 90% fast fibers)
# Assay: Activation of fast skeletal myofibrils (PUMA coupled-enzyme ATPase assay)
# Type: biochemical
# Conditions: AC1.4 = concentration at which the compound increased the enzymatic activity by 40%; myofibril suspension at calcium level pCa25; PM12 buffer pH 6.8
# Description: Preparation of fast skeletal myofibrils. Rabbit skeletal myofibrils were prepared based upon the method of Herrmann et al. (Biochem. 32(28):7255-7263(1993). Myofibrils were prepared from rabbit psoas muscle purchased from Pel-Freez Biologicals (Arkansas) within 2 days of ordering, stored on ice. Minced muscle was homogenized in 10 volumes of ice-cold “standard” buffer (50 mM Tris, pH 7.4, 0.1 M potassium acetate, 5 mM KCl, 2 mM DTT, 0.2 mM PMSF, 10 μM leupeptin, 5 μM pepstatin, and 0.5 mM sodium azide) containing 5 mM EDTA and 0.5% Triton X-100 using an Omni-Macro homogenizer. Myofibrils were recovered by low speed centrifugation (3000 rpm for 10 minutes) and washed 2 times in the Triton X-100 containing buffer to ensure removal of cellular membrane. Following the Triton washes, myofibrils were washed 3 times in “standard” buffer containing 2 mM magnesium acetate. A final wash in assay buffer (12 mM PIPES, pH 6.8, 60 mM KCl, 1 mM DTT) was performed and brought to 10% sucrose for flash freezing in liquid nitrogen and storage at −80° C.
# Activation of Fast Skeletal Myofibrils. Fast fiber activators were identified by measuring the enzymatic activity of muscle myofibril preparations using the proprietary PUMA™ (see, e.g., U.S. Pat. Nos. 6,410,254, 6,743,599, 7,202,051, and 7,378,254) assay system. Myofibril preparations consisted of rabbit skeletal muscle (approximately 90% fast fibers) that had been mechanically homogenized and washed with a detergent (triton X-100) to remove cellular membranes. This preparation retained all of the sarcomeric components in a native conformation and the enzymatic activity was still regulated by calcium. Compounds were tested using a myofibril suspension and a level of calcium sufficient to increase enzymatic activity of the myofibrils to 25% of their maximal rate (termed pCa25). Enzymatic activity was tracked via a pyruvate kinase and lactate dehydrogenase-coupled enzyme system. This assay regenerates myosin-produced ADP into ATP by oxidizing NADH, producing an absorbance change at 340 nm. The buffering system was 12 mM Pipes, 2 mM MgCl2, 1 mM DTT at pH 6.8 (PM12 buffer).
# Using procedures similar to those described herein, utilizing reagents and intermediates commercially available (e.g., Sigma-Aldrich,) or readily synthesized by one of skill in the art, the compounds in Table 2 were synthesized, characterized and tested. AC1.4 values were determined according to the procedure described in Example 25, and the reported median AC1.4 values are as follows: A=<1 uM; B=1-10 uM; C=10-20 uM; D=>20 uM.
row,Mean AC1.4,SMILES
1,B (B=1-10 uM),"CC(C)(Nc1ncc(-c2cc(C#N)ccc2F)nn1)c1cccc(C(F)F)n1 [3-[3-({1-[6-(difluoromethyl)(2-pyridyl)]-isopropyl}amino)(1,2,4-triazin-6-yl)]-4-fluorobenzenecarbonitrile]"
2,A (A=<1 uM),"NC(=O)c1ccc(F)c(-c2cnc(NCC3(c4ncccc4Cl)CC(F)(F)C3)nn2)c1 [3-[3-({[1-(3-chloro(2-pyridyl))-3,3-difluorocyclobutyl]methyl}amino)(1,2,4-triazin-6-yl)]-4-fluorobenzamide]"
3,A (A=<1 uM),"NC(=O)c1ccc(F)c(-c2cnc(NC[C@]3(c4ncccc4Cl)C[C@H](F)C3)nn2)c1 [3-[3-({[1-(3-chloro(2-pyridyl))-3-fluorocyclobutyl]methyl}amino)(1,2,4-triazin-6-yl)]-4-fluorobenzamide]"
4,A (A=<1 uM),"NC(=O)c1cccc(-c2cnc(NC[C@]3(c4ncccc4Cl)C[C@H](F)C3)nn2)c1 [3-[3-({[1-(3-chloro(2-pyridyl))-3-fluorocyclobutyl]methyl}amino)-1,2,4-triazin-6-yl]benzamide]"
5,B (B=1-10 uM),"N#Cc1cccc(-c2cnc(NC[C@]3(c4ncccc4Cl)C[C@H](F)C3)nn2)c1 [3-[3-({[1-(3-chloro(2-pyridyl))-3-fluorocyclobutyl]methyl}amino)-1,2,4-triazin-6-yl]benzenecarbonitrile]"
6,A (A=<1 uM),"NC(=O)c1ccc(O)c(-c2cnc(NC[C@]3(c4ncccc4F)C[C@H](F)C3)nn2)c1 [3-[3-({[3-fluoro-1-(3-fluoro(2-pyridyl))cyclobulyl]methyl}amino)(1,2,4-triazin-6-yl)]-4-hydroxybenzamide]"
7,A (A=<1 uM),"NC(=O)c1cccc(-c2cnc(NC[C@]3(c4ncccc4F)C[C@H](F)C3)nn2)c1 [3-[3-({[3-fluoro-1-(3-fluoro(2-pyridyl))cyclobutyl]methyl}amino)-1,2,4-triazin-6-yl]benzamide]"
8,A (A=<1 uM),"NC(=O)c1ccc(F)c(-c2cnc(NC3(c4cccc(OC(F)F)n4)CCC3)nn2)c1 [3-[3-({[6-(difluoromethoxy)(2-pyridyl)]cyclobulyl}amino)(1,2,4-triazin-6-yl)]-4-fluorobenzamide]"
9,C (C=10-20 uM),"CC(Nc1ncc(-c2cc(C(N)=O)ccc2F)nn1)c1cccc(OC(F)F)n1 (stereo not drawn) [3-[3-({[6-(difluoromethoxy)(2-pyridyl)]ethyl}amino)(1,2,4-triazin-6-yl)]-4-fluorobenzamide]"
10,D (D=>20 uM),"NC(=O)c1ccc(F)c(-c2cnc(NCc3cccc(OC(F)F)n3)nn2)c1 [3-[3-({[6-(difluoromethoxy)(2-pyridyl)]methyl}amino)(1,2,4-triazin-6-yl)]-4-fluorobenzamide]"
11,A (A=<1 uM),"NC(=O)c1ccc(F)c(-c2cnc(NCC3(c4ncccc4Cl)CCC3)nn2)c1 [3-[3-({[(3-chloro(2-pyridyl))cyclobutyl]methyl}amino)(1,2,4-triazin-6-yl)]-4-fluorobenzamide]"
12,A (A=<1 uM),"O=C(O)c1ccc(F)c(-c2cnc(NCC3(c4ncccc4Cl)CCC3)nn2)c1 [3-[3-({[(3-chloro(2-pyridyl))cyclobutyl]methyl}amino)(1,2,4-triazin-6-yl)]-4-fluorobenzoic acid]"
13,B (B=1-10 uM),"NC(=O)c1cccc(-c2cnc(NCC3(c4ncccc4F)CCC3)nn2)c1 [3-[3-({[(3-fluoro-2-pyridyl)cyclobutyl]methyl}amino)-1,2,4-triazin-6-yl]benzamide]"
14,B (B=1-10 uM),NC(=O)c1cccc(-c2cnc(NC[C@]3(c4ncccc4F)C[C@H](F)C3)c(F)c2)c1 [3-[5-fluoro-6-({[3-fluoro-1-(3-fluoro(2-pyridyl))cyclobutyl]methyl}amino)-3-pyridyl]benzamide]
15,A (A=<1 uM),"NC(=O)c1cccc(-c2ncc(NCC3(c4ccc(F)cc4)CCC3)nn2)c1 [3-[6-({[(4-fluorophenyl)cyclobutyl]methyl}amino 1,2,4-triazin-3-yl]benzamide]"
16,D (D=>20 uM),"CC(C)(Nc1ncc(-c2ccc(C(N)=O)cc2F)nn1)c1ncccc1F [3-fluoro-4-(3-{[1-(3-fluoro(2-pyridyl))-isopropyl]amino}(1,2,4-triazin-6-yl))benzamide]"
17,D (D=>20 uM),"CC(C)(C)Nc1ncc(-c2cc(C(N)=O)ccc2F)nn1 [3-{3-[(tert-butyl)amino](1,2(4-triazin-6-yl)}-4-fluorobenzamide]"

row,Mean AC1.4,SMILES
1,D (D=>20 uM),NC(=O)c1cccc(-c2ccc(NC(=O)Cc3ccc(F)cc3)nc2)c1 [3-{6-[2-(4-fluorophenyl)acetylamino]-3-pyridyl}benzamide]
2,B (B=1-10 uM),CC(C)(CNc1ccc(-c2ccc(C(N)=O)cc2)cn1)c1ccc(F)cc1 [4-(6-{[2-(4-fluorophenyl)-2-methylpropyl]amino}-3-pyridyl)benzamide]
3,B (B=1-10 uM),"CC(C)(Nc1ncc(-c2cc(C(N)=O)ccc2F)nn1)c1ncccc1F [4-fluoro-3-(3-{[1-(3-fluoro(2-pyridyl))-isopropyl]amino}(1,2,4-triazin-6-yl))benzamide]"
4,C (C=10-20 uM),"CC(C)(Nc1ncc(-c2cc(C(=O)O)ccc2F)nn1)c1ncccc1F [4-fluoro-3-(3-{[1-(3-fluoro(2-pyridyl))-isopropyl]amino}(1,2,4-triazin-6-yl))benzoic acid]"
5,B (B=1-10 uM),"Cc1ccc(F)c(C(C)(C)Nc2ncc(-c3cc(C(N)=O)ccc3F)nn2)n1 [4-fluoro-3-(3-{[1-(3-fluoro-6-methyl(2-pyridyl))-isopropyl]amino}(1,2,4-triazin-6-yl))benzamide]"
6,A (A=<1 uM),"CC(C)(Nc1ncc(-c2cc(C(N)=O)ccc2F)nn1)c1ccc(F)cc1 [4-fluoro-3-(3-{[1-(4-fluorophenyl)-isopropyl]amino}(1,2,4-triazin-6-yl))benzamide]"
7,B (B=1-10 uM),"Cc1nc(C(C)(C)Nc2ncc(-c3cc(C(N)=O)ccc3F)nn2)ccc1F [4-fluoro-3-(3-{[1-(5-fluoro-6-methyl(2-pyridyl))-isopropyl]amino}(1,2,4-triazin-6-yl))benzamide]"
8,C (C=10-20 uM),"Cc1cccc(C(C)(C)Nc2ncc(-c3cc(C(N)=O)ccc3F)nn2)n1 [4-fluoro-3-(3-{[1-methyl-1-(6-methyl(2-pyridyl))ethyl]amino}(1,2,4-triazin-6-yl))benzamide]"
9,B (B=1-10 uM),"NC(=O)c1ccc(F)c(-c2cnc(NCC3(c4ccccn4)CCC3)nn2)c1 [4-fluoro-3-(3-{[(2-pyridylcyclobutyl)methyl]amino}(1,2,4-triazin-6-yl))benzamide]"
10,B (B=1-10 uM),"NC(=O)c1ccc(F)c(-c2cnc(NC3(c4ncccc4F)CCC3)nn2)c1 [4-fluoro-3-(3-{[(3-fluoro(2-pyridyl))cyclobutyl]amino}(1,2,4-triazin-6-yl))benzamide]"
11,C (C=10-20 uM),"CC(Nc1ncc(-c2cc(C(N)=O)ccc2F)nn1)c1ncccc1F (stereo not drawn) [4-fluoro-3-(3-{[(3-fluoro(2-pyridyl))ethyl]amino}(1,2,4-triazin-6-yl))benzamide]"
12,B (B=1-10 uM),"NC(=O)c1ccc(F)c(-c2cnc(NC3(c4ccc(F)cc4)CCC3)nn2)c1 [4-fluoro-3-(3-{[(4-fluorophenyl)cyclobutyl]amino}(1,2,4-triazin-6-yl))benzamide]"
13,D (D=>20 uM),"CC(C)(Nc1ncc(-c2cc(C(N)=O)ccc2F)nn1)c1cccc(S(C)(=O)=O)c1 [4-fluoro-3-[3-({1-methyl-1-[3-(methylsulfonyl)phenyl]ethyl}amino)(1,2,4-triazin-6-yl)]benzamide]"
14,A (A=<1 uM),"NC(=O)c1ccc(F)c(-c2cnc(NC[C@]3(c4ncccc4F)C[C@H](F)C3)nn2)c1 [4-fluoro-3-[3-({[3-fluoro-1-(3-fluoro(2-pyridyl))cyclobutyl]methyl}amino)(1,2,4-triazin-6-yl)]benzamide]"
15,B (B=1-10 uM),"O=C(O)c1ccc(F)c(-c2cnc(NCC3(c4ncccc4F)CCC3)nn2)c1 [4-fluoro-3-[3-({[(3-fluoro(2-pyridyl))cyclobulyl]methyl}amino)(1,2,4-triazin-6-yl)]benzoic acid]"
16,A (A=<1 uM),"NC(=O)c1ccc(F)c(-c2cnc(NCC3(c4ncccc4F)CCC3)nn2)c1 [4-fluoro-3-[3-({[(3-fluoro(2-pyridyl))cyclobutyl]methyl}amino)(1,2,4-triazin-6-yl)]benzamide]"
